# Laboratory results reported in ChEMBL document CHEMBL1255316, “A peptide with a ProGln C terminus in the human saliva peptidome exerts bactericidal activity against Propionibacterium acnes” (Antimicrob Agents Chemother, 2008).
# Calls of active or inactive are those of the source. The rule behind the calls is not given here. Residues, ends and D or L forms follow the SMILES beside them.
# Columns and labels:
# [1] = tested on: Cell membrane; experiment: Binding affinity to membrane of Propionibacterium acnes ATCC 6919 at 10 uM after 1 hr by fluorescence microscopy under anaerobic condition; assay type: functional; details: Cutibacterium acnes, Plasma membrane
# [2] = tested on: Cutibacterium acnes; experiment: Antibacterial activity against Propionibacterium acnes assessed as attenuation of colonization at 100 uM incubated with compound for 3 hrs measured after 2 days; assay type: functional, organism-based
# [3] = tested on: Cutibacterium acnes; experiment: Antibacterial activity against Propionibacterium acnes assessed as attenuation of colonization at 10 uM incubated with compound for 3 hrs measured after 2 days; assay type: functional, organism-based
# [4] = tested on: Cutibacterium acnes; experiment: Antibacterial activity against Propionibacterium acnes assessed as attenuation of colonization at 1 uM incubated with compound for 3 hrs measured after 2 days; assay type: functional, organism-based
# [5] = tested on: Porphyromonas gingivalis; experiment: Binding affinity to membrane of Porphyromonas gingivalis ATCC 33277 at 10 uM after 1 hr by fluorescence microscopy under anaerobic condition; assay type: functional
# [6] = tested on: Cell membrane; experiment: Binding affinity to membrane of Propionibacterium acnes ATCC 6919 at 1 uM after 1 hr by fluorescence microscopy under anaerobic condition; assay type: functional; details: Cutibacterium acnes, Plasma membrane
Activity [5],Compound,Activity [1],Activity [2],Activity [3],Activity [4],Activity [6]
,N=C(N)NCCC[C@H](NC(=O)[C@H](CCCCN)NC(=O)CNC(=O)[C@@H](N)CS)C(=O)N[C@@H](CCCCN)C(=O)O (H-CGKRK-OH),inactive,,,,
inactive,N=C(N)NCCC[C@H](NC(=O)CNC(=O)CNC(=O)[C@H](CCC(N)=O)NC(=O)[C@@H]1CCCN1C(=O)[C@@H]1CCCN1C(=O)[C@@H]1CCCN1C(=O)CN)C(=O)N1CCC[C@H]1C(=O)N[C@@H](CCC(N)=O)C(=O)O (H-GPPPQGGRPQ-OH),Active,Active,Active,Active,Active
